This test deals with CFTR-mediated chloride transport (Homo sapiens, UniProt P13569). The format is cell-based. Particulars: enteroid cells incubated with test compound 18-24 hours, acute 10 μM forskolin and 300 nM Compound III; for Max. Activity: % of chloride transport with 3 μM Compound A, 3 μM Compound II and 300 nM acute Compound III triple combination control. In outline: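 Membrane-potential fluorescence AUC over 15 min quantified CFTR chloride transport after acute forskolin (10 μM), IBMX (100 μM) and Compound III (300 nM) in chloride-free buffer. Human enteroid cells were pretreated with compound for 18–24 h; % Activity is relative to 3 μM Compound A + 3 μM Compound II + 300 nM Compound III.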

SMILES strings stand for the structures. Bounds are passed on as bounds.

Usually EC50 stands for the concentration at which the effect is half-maximal.

CFTR-mediated chloride transport, sequence (P13569 whole entry, looked up): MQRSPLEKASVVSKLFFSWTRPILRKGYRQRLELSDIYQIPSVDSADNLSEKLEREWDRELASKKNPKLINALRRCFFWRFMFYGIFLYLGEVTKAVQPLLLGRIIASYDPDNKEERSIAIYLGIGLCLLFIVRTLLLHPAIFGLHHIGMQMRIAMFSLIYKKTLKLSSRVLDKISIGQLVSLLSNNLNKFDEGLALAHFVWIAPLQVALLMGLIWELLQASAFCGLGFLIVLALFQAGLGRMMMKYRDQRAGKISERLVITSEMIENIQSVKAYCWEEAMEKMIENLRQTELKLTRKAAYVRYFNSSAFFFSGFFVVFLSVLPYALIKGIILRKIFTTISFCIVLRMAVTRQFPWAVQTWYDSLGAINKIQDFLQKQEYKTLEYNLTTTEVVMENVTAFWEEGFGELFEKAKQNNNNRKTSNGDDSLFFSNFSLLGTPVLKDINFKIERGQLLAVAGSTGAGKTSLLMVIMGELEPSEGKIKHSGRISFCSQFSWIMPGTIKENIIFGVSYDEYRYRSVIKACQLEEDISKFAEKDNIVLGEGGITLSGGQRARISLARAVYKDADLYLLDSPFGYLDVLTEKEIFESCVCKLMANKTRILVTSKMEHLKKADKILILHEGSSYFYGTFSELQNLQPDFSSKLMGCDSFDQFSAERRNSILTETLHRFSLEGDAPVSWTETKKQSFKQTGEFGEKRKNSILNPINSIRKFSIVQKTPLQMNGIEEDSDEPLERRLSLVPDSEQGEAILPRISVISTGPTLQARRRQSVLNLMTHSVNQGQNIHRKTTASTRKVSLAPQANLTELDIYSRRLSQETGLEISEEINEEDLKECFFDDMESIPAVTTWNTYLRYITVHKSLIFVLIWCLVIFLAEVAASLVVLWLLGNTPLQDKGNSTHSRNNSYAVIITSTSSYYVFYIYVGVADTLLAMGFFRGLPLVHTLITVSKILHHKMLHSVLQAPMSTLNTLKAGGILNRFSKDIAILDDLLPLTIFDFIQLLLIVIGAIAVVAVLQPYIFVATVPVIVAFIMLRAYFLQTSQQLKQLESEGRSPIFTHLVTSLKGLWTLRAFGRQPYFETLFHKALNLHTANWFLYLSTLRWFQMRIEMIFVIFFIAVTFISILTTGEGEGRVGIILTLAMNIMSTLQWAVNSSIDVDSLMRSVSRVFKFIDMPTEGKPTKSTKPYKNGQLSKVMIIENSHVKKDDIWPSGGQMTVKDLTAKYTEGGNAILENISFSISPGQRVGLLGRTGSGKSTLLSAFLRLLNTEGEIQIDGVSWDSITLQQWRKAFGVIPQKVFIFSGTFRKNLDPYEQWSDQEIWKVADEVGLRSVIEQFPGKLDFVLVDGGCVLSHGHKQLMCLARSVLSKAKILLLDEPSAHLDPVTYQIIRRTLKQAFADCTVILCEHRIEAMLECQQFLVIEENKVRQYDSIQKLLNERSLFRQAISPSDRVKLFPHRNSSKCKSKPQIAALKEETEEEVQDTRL

Take `CN1CCC[C@H]2CN(c3nc(-n4ccc(OCCC5(C(F)(F)F)CC5)n4)ccc3C(=O)NS(=O)(=O)c3cccc1n3)C(C)(C)C2` (single isomer, unassigned) [Compound 139, 12,12,18-trimethyl-8-(3-{2-[1-(trifluoromethyl)cyclopropyl]ethoxy}-1H-pyrazol-1-yl)-2λ^6-thia-3,9,11,18,23-pentaazatetracyclo[17.3.1.111,14.05,10]tetracosa-1(23),5(10),6,8,19,21-hexaene-2,2,4-trione]: the 50% effective concentration (EC50) is under 1000 nM and the “Max. Activity” value is given as “+++ (+++ is >60%)”.
On the same counts, the results for `CC(C)(C)CCC[C@H]1CCN(c2ccc3c(n2)N2C[C@@H](CCCNc4cccc(n4)S(=O)(=O)NC3=O)CC2(C)C)C1=O` (single isomer, unassigned) [Compound 145] are under 1000 nM and “+++ (+++ is >60%)”.
Take `CC(C)(C)CCC[C@H]1CCN(c2ccc3c(n2)N2C[C@@H](CCCNc4cccc(n4)S(=O)(=O)NC3=O)CC2(C)C)C1=O` (single isomer, unassigned) [Compound 146]: the EC50 was under 1000 nM and the “Max. Activity” value is “+++ (+++ is >60%)”.
In the same order, the values of `Cc1ccc2nc1S(=O)(=O)NC(=O)c1ccc(-n3ccc(OCCC4(C(F)(F)F)CC4)n3)nc1N1C[C@H](CCCN2)CC1(C)C` (single isomer, unassigned) [Compound 148, 12,12,22-trimethyl-8-(3-{2-[1-(trifluoromethyl)cyclopropyl]ethoxy}-1H-pyrazol-1-yl)-2λ^6-thia-3,9,11,18,23-pentaazatetracyclo[17.3.1.111,14.05,10]tetracosa-1(23),5(10),6,8,19,21-hexaene-2,2,4-trione] are over 3000 nM and “+ (+ is <30%)”.
On the same counts, the results for `Cc1ccc2nc1S(=O)(=O)NC(=O)c1ccc(-n3ccc(OCCC4(C(F)(F)F)CC4)n3)nc1N1C[C@H](CCCN2)CC1(C)C` (single isomer, unassigned) [Compound 149, 12,12,22-trimethyl-8-(3-{2-[1-(trifluoromethyl)cyclopropyl]ethoxy}-1H-pyrazol-1-yl)-2λ^6-thia-3,9,11,18,23-pentaazatetracyclo[17.3.1.111,14.05,10]tetracosa-1(23),5(10),6,8,19,21-hexaene-2,2,4-trione] are under 1000 nM and “+++ (+++ is >60%)”.
In the same order, the values of `Cc1cc2nn1CCC[C@H]1CN(c3nc(-n4ccc(OCCC5(C(F)(F)F)CC5)n4)ccc3C(=O)NS2(=O)=O)C(C)(C)C1` (single isomer, unassigned) [Compound 150, 13,20,20-Trimethyl-4-(3-{2-[1-(trifluoromethyl)cyclopropyl]ethoxy}-1H-pyrazol-1-yl)-10λ^6-thia-1,3,9,14,22-pentaazatetracyclo[16.2.1.111,14.02,7]docosa-2,4,6,11(22),12-pentaene-8,10,10-trione] are 1000 to 3000 nM and “+ (+ is <30%)”.
Regarding `Cc1cc2nn1CCC[C@H]1CN(c3nc(-n4ccc(OCCC5(C(F)(F)F)CC5)n4)ccc3C(=O)NS2(=O)=O)C(C)(C)C1` (single isomer, unassigned) [Compound 151, 13,20,20-trimethyl-4-(3-{2-[1-(trifluoromethyl)cyclopropyl]ethoxy}-1H-pyrazol-1-yl)-10λ^6-thia-1,3,9,14,22-pentaazatetracyclo[16.2.1.111,14.02,7]docosa-2,4,6,11(22),12-pentaene-8,10,10-trione], the EC50 was under 1000 nM and the “Max. Activity” value was “+++ (+++ is >60%)”.
For the compound `CC1(C)C[C@H]2CCCn3ccc(n3)S(=O)(=O)NC(=O)c3ccc(-n4ccc(OCCC(C5CC5)C5CC5)n4)nc3N1C2` (single isomer, unassigned) [Compound 153, 4-[3-(3,3-dicyclopropylpropoxy)-1H-pyrazol-1-yl]-20,20-dimethyl-10λ^6-thia-1,3,9,14,22-pentaazatetracyclo[16.2.1.111,14.02,7]docosa-2,4,6,11(22),12-pentaene-8,10,10-trione], the EC50 was over 3000 nM and the “Max. Activity” value is “+ (+ is <30%)”.
Regarding `CC1(C)C[C@H]2CCCn3ccc(n3)S(=O)(=O)NC(=O)c3ccc(-n4ccc(OCCC(C5CC5)C5CC5)n4)nc3N1C2` (single isomer, unassigned) [Compound 154, 4-[3-(3,3-dicyclopropylpropoxy)-1H-pyrazol-1-yl]-20,20-dimethyl-10λ^6-thia-1,3,9,14,22-pentaazatetracyclo[16.2.1.111,14.02,7]docosa-2,4,6,11(22),12-pentaene-8,10,10-trione], the half-maximal effective concentration (EC50) is under 1000 nM and the “Max. Activity” value was “+++ (+++ is >60%)”.
In the same order, the values of `CC1(C)C[C@@H]2CN1c1nc(-n3ccc(OCCCC4(C(F)(F)F)CC4)n3)ccc1C(=O)NS(=O)(=O)c1cccc(n1)NCCO2` (single isomer, unassigned) [Compound 159, 12,12-dimethyl-8-(3-{3-[1-(trifluoromethyl)cyclopropyl]propoxy}-1H-pyrazol-1-yl)-15-oxa-2λ^6-thia-3,9,11,18,23-pentaazatetracyclo[17.3.1.111,14.05,10]tetracosa-1(23),5,7,9,19,21-hexaene-2,2,4-trione] are over 3000 nM and “+ (+ is <30%)”.
On the same counts, the results for `CC1(C)C[C@@H]2CN1c1nc(-n3ccc(OCCCC4(C(F)(F)F)CC4)n3)ccc1C(=O)NS(=O)(=O)c1cccc(n1)NCCO2` (single isomer, unassigned) [Compound 160, 12,12-dimethyl-8-(3-{3-[1-(trifluoromethyl)cyclopropyl]propoxy}-1H-pyrazol-1-yl)-15-oxa-2λ^6-thia-3,9,11,18,23-pentaazatetracyclo[17.3.1.111,14.05,10]tetracosa-1(23),5,7,9,19,21-hexaene-2,2,4-trione] are under 1000 nM and “+++ (+++ is >60%)”.
`CC1(C)C[C@@H]2CN1c1nc(-n3ccc(OCCC(C4CC4)C4CC4)n3)ccc1C(=O)NS(=O)(=O)c1cccc(n1)NCCO2` (single isomer, unassigned) [Compound 162, 8-[3-(3,3-dicyclopropylpropoxy)-1H-pyrazol-1-yl]-12,12-dimethyl-15-oxa-2λ^6-thia-3,9,11,18,23-pentaazatetracyclo[17.3.1.111,14.05,10]tetracosa-1(23),5,7,9,19,21-hexaene-2,2,4-trione]: the concentration for a half-maximal effect (EC50) was in the range of 1000 to 3000 nM and the “Max. Activity” value was “++ (++ is 30-60%)”.
On the same counts, the results for `CC1(C)C[C@@H]2CN1c1nc(-n3ccc(OCCC(C4CC4)C4CC4)n3)ccc1C(=O)NS(=O)(=O)c1cccc(n1)NCCO2` (single isomer, unassigned) [Compound 163, 8-[3-(3,3-dicyclopropylpropoxy)-1H-pyrazol-1-yl]-12,12-dimethyl-15-oxa-2λ^6-thia-3,9,11,18,23-pentaazatetracyclo[17.3.1.111,14.05,10]tetracosa-1(23),5,7,9,19,21-hexaene-2,2,4-trione] are under 1000 nM and “++ (++ is 30-60%)”.
In the same order, the values of `CC1(C)C[C@H]2CCCn3ccc(n3)S(=O)(=O)NC(=O)c3ccc(-n4ccc(OCCCC5(C(F)(F)F)CC5)n4)nc3N1C2` (single isomer, unassigned) [Compound 165, 20,20-dimethyl-4-(3-{3-[1-(trifluoromethyl)cyclopropyl]propoxy}-1H-pyrazol-1-yl)-10λ^6-thia-1,3,9,14,22-pentaazatetracyclo[16.2.1.111,14.02,7]docosa-2(7),3,5,11(22),12-pentaene-8,10,10-trione] are over 3000 nM and “+ (+ is <30%)”.
